Laboratory results from publication PMC9775322, “An Integrated Analysis of Mechanistic Insights into Biomolecular Interactions and Molecular Dynamics of Bio-Inspired Cu(II) and Zn(II) Complexes towards DNA/BSA/SARS-CoV-2 3CL^pro by Molecular Docking-Based Virtual Screening and FRET Detection” (Biomolecules, 2022).

How the values were obtained:
[1] = system: NHDF Normal human dermal fibroblasts cell line; experiment: MTT cell viability assay; assay type: cell-based; settings: 72 h exposure
CT-DNA = experiment: DNA thermal denaturation (biothermodynamic properties); assay type: binding, calf; settings: for ΔS°: (ΔH°−ΔG°)/Tm; for ΔH°: Van't Hoff equation; for Tm °C of DNA-compound adduct / Tm (K) of DNA-compound adduct: compound 50 μM : CT-DNA 50 μM (1:1), 260 nm; for Tm °C of DNA-compound adduct: CT DNA alone 68 °C; for Tm (K) of DNA-compound adduct: CT DNA alone 341 K; for ΔTm °C: melting temperature change vs DNA alone; for ΔG°: −R·Tm·ln Km
Protocol: The biothermodynamic properties were obtained from absorption titration by a UV–visible spectrophotometer, accomplished with a temperature-controlled sample container in both the presence and absence of the substances. In a 5 mM Tris-HCl/50 mM NaCl buffer solution with a pH of 7.4, each test substance (50 μM) was incubated with CT-DNA (50 μM) in a 1:1 ratio. The test materials were all warmed at a rate of five degrees Celsius per minute to temperatures between 25 and 100 °C, and the changes in absorbance at 260 nm were carefully monitored. […]
ɛa is represented as the apparent absorption coefficient value for the MLCT band at a specific concentration of deoxyribonucleic acid and evaluated from Abs/[complex]. ɛ f and ɛb are the absorption coefficients for the chemical substance alone and completely interacted with deoxyribonucleic acid, respectively. ∆Amax = (Amax–A0); ∆A=(Ax–A0), where A0, Ax and Amax are denoted as the optical density of chemical substances alone, the middle form, and the completely interacted form with deoxyribonucleic acid, respectively.
2.2.3. Evaluation of biothermodynamic properties
The thermal denaturation study of CT-DNA is an efficient tool for examining the stability of test compounds bound to double-stranded DNA. […]
double to single stranded DNA. The biothermodynamic parameters also involve powerful proof for binding between test compounds and DNA. The denaturation of the biomolecules depends on T m, pH and non-physiological concentrations of salt, organic solvents and other chemical agents, etc. The DNA double helix breaks into two single strands as the temperature or pH rises, which is ascribed to the breaking of hydrophobic stacking attractions and the dissolution of H-bonds between the DNA base pairs as a result of the hydroxide ions' […]
withdrawing of the hydrogen ions (H +) from DNA base pairs. It causes a hyperchromic shift […]
inversely proportional to viscosity. Low salt concentration, conversely, can also denature DNA double-strands by eliminating the ions that stabilize the negative charges on the two strands from each other. By using UV-Vis analysis in a temperature-controlled sample holder, DNA thermal denaturation was carried out both in the absence and presence of the test compounds. In 5mM Tris-HCl /50 mM NaCl buffer (pH = 7.4) solution, each test substance (50 μM) was incubated in a 1:1 ratio with CT- DNA (50 μM). All samples were heated in the range of 25 to 100 °C at a rate of 5 °C per minute and the absorbance changes at 260 nm were constantly monitored. T m of DNA alone was evaluated as the midpoint of the sigmoid’ curves plotted absorbance vs temperature profiles. The Tm is depends on the double-stranded DNA stability. Due to substantial intercalation in DNA-complex adducts, the […]
temperature. When increasing temperature, double-stranded DNA converts into two single strands at the melting point, which leads to hyperchromic effect due to reducing the base-base interaction. As compared to DNA alone at the same high temperature, the incubated DNA solution with test compounds leads to hyporchromic effect accompanied with red shift.
Strong interactions between complexes and DNA, which restrict the separation of the double helix, cause the stabilization, and as a result, T m rises. In accordance with the T m, 50% of DNA is in its native double-stranded state, and the remaining 50% is in its denaturalized single-stranded state.
ΔG° = – R.Tm. lnKm = ΔH°– Tm ΔS° (S10)
Where K1 is represented as the binding constant value at 298 K (T r), the binding constant K 2 (Km), which indicates the temperature at which substances melt their DNA (T m K), This […]
technique offers crucial data on binding constants and associated ΔG °, ΔS° and ΔH° findings for compound-deoxyribonucleic acid systems. […]
not deliver definite confirmation for the exact mode of interactions. The experiment

[2] = system: A549 Human lung cancer cell line; experiment: MTT cell viability assay; assay type: cell-based; settings: 72 h exposure, at least three independent experiments
BSA = target: T1, BSA (Bos taurus, UniProt P02769); experiment: Förster's theory-based FRET computation, donor (BSA)–acceptor (compound); assay type: binding, bovine; set-up: kET (rate of exchange resonance energy transfer): unit not given here; settings: for J (normalized spectral overlap integral): BSA emission vs compound absorption; for kET (rate of exchange resonance energy transfer) / r (donor-acceptor separation): BSA–compound; for E (efficiency of energy transfer): E=1−F/F0; for B (average brightness of the complex-BSA system): free BSA = 6573.60 M^−1 cm^−1; for R0 (critical distance, 50% energy transfer): n = 1.36, Φ = 0.15, K^2 = 2/3
T1 construct: purchased Sigma Aldrich
From the text: As per Förster’s theory, the critical distance of the donor-acceptor system can be determined with the supporting of the FRET approach to assess the binding affinity between BSA-substance systems. […]
excitation and emission directions, respectively. Also, the alteration in absorbance (OD) at the excitation and fluorescence wavelengths, respectively, is sometimes referred to as A ex and […]
F = 1+KSV [Q] = 1+ Kq τ0 (S13)
Where [Q] is represented as the sample concentration (quencher), the emission intensities F 0 and F are those in the […] of the quencher, respectively.
F ) = log Kass + nlog [Q] (S14)
KEB[EB] = Kapp[compound] (S15)
∆F = (F 0–F), Equation (16) was utilized to examine the Lineweaver –Burk binding constant (KLB) from the linear regression plot of 1/(F0–F) vs 1/[Q]. […]
γ =(F0–F)/F0, CF is denoted as the concentration of sample alone, the linear regression plot of (γ/CF) vs γ was employed to support equation (17), which was used to determine the values of KSA and n, respectively.
2.2.6. FRET calculation by Förster’s theory
Calculating FRET (Fluorescence Resonance Energy Transfer) is a crucial approach in determining the critical distance (r) between donor (BSA) and acceptor (test compound) molecules, in which the binding affinity between the BSA-complex systems could be evalued according to Förster’s theory. The overlap of the emission spectrum of the donor (BSA) and the absorption spectrum of the acceptor (compound) describes that the acceptor (compound) group may get excited as a result of the excited donor's (BSA) energy being lost to the ground […]
The relative orientation factor of the dipoles (K 2) is associated with the geometry of the BSA and complex of the dipoles, the value for random orientation (K 2 = 2/3) like in a fluid […]
F(λ) is represented as the corrected or the normalized emission intensity(OD) of the bovine serum albumin in the range of λ–(λ+∆λ), ε(λ) is denoted as the molar extinction coefficient of […]
The radiative, non-radiative decay and quenching rate constants are denoted as k r, knr and kq, respectively, and the concentration of complex (quenching species) is described as [Q].

[3] = system: HepG2 Liver cancer cell line; experiment: MTT cell viability assay; assay type: cell-based; settings: 72 h exposure, at least three independent experiments
[4] = system: MCF-7 Breast cancer cell line; experiment: MTT cell viability assay; assay type: cell-based; settings: 72 h exposure, at least three independent experiments

T1 sequence (P02769 25-607): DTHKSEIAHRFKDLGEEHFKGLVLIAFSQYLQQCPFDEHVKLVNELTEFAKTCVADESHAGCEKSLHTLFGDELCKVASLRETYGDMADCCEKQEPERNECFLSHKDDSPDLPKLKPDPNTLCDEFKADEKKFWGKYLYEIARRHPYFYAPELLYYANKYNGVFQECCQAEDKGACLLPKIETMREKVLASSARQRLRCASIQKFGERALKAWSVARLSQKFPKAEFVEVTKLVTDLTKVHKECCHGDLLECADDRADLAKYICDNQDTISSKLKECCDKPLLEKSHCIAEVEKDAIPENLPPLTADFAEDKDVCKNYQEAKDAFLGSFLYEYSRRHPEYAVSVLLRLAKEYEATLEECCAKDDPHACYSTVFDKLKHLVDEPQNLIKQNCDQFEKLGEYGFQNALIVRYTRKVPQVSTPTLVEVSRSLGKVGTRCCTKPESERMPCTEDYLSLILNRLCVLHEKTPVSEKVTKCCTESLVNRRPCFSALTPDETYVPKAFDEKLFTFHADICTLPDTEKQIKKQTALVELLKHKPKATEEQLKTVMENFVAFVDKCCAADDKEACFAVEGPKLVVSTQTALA

Row | SMILES | IC50 [1] | Binding Constant Kr (or) K1 @ 298 K (CT-DNA) | ΔS° (CT-DNA) | ΔH° (CT-DNA) | Tm °C of DNA-compound adduct (CT-DNA) | Tm (K) of DNA-compound adduct (CT-DNA) | ΔTm °C (CT-DNA) | ΔG° (CT-DNA) | IC50 [2] | J (normalized spectral overlap integral) (BSA) | kET (rate of exchange resonance energy transfer) (BSA) | r (donor-acceptor separation) (BSA) | E (efficiency of energy transfer) (BSA) | B (average brightness of the complex-BSA system) (BSA) | R0 (critical distance, 50% energy transfer) (BSA) | IC50 [3] | IC50 [4]
1 | [Cu+2].[O-]c1ccccc1N=Cc1ccc(N2CCOCC2)cc1.[O-]c1ccccc1N=Cc1ccc(N2CCOCC2)cc1.c1cnc2c(c1)ccc1cccnc12 [(1b), [Cu^II(L)2(phen)]] | 72.6 ± 2.9 µM | 20610 M⁻¹ | −7.6237 cal mol^−1 K^−1 | -8.1538 kcal/mol | 80.5 °C | 353.5 K | 12.5 °C | -5.4588 kcal/mol | 29.7 ± 1.2 µM | 0.6852 × 10^−14 LM^−1cm^3 | 3.8294 | 2.7780 nm | 0.2769 | 4999.08 M⁻¹ cm⁻¹ | 2.3673 nm | 30.9 ± 1.2 µM | 31.7 ± 1.3 µM
2 | [O-]c1ccccc1N=Cc1ccc(N2CCOCC2)cc1.[O-]c1ccccc1N=Cc1ccc(N2CCOCC2)cc1.[Zn+2].c1cnc2c(c1)ccc1cccnc12 [(2b), [Zn^II(L)2(phen)]] | 74.5 ± 3 µM | 19930 M⁻¹ | −9.1806 cal mol^−1 K^−1 | -8.5979 kcal/mol | 78.5 °C | 351.5 K | 10.5 °C | -5.3709 kcal/mol | 32.1 ± 1.3 µM | 0.9460 × 10^−14 LM^−1cm^3 | 4.7730 | 2.8257 nm | 0.3231 | 5650.81 M⁻¹ cm⁻¹ | 2.4980 nm | 33.4 ± 1.4 µM | 32.5 ± 1.3 µM
3 | Oc1ccccc1N=Cc1ccc(N2CCOCC2)cc1 [(HL), 2-(4-morpholinobenzylideneamino)phenol] |  | 15169 M⁻¹ | −13.7851 cal mol^−1 K^−1 | -9.8083 kcal/mol | 74 °C | 347.0 K | 6 °C | -5.0249 kcal/mol |  | 0.8215 × 10^−14 LM^−1cm^3 | 5.8443 | 2.6685 nm | 0.3462 | 5339.79 M⁻¹ cm⁻¹ | 2.4400 nm |  | 
